The subject of data set [1] is Staphylococcus aureus. Description: Induction of sensitization to immune clearance towards Staphylococcus aureus Mu50 infected in human whole blood assessed as bacterial killing by measuring bacterial survival after 6 hrs by serial dilution method relative to control. The data set is classed as functional.
A short description of data set [2]: Cytotoxicity against human HepG2 cells after 72 hrs by CCK8 assay. The data set is classed as cell-based.
In data set [3] the test system is Staphylococcus aureus. Nature of the data set: Induction of sensitization to immune clearance towards Staphylococcus aureus USA400 MW2 infected in human whole blood assessed as bacterial killing by measuring bacterial survival after 6 hrs by serial dilution method relative to control. The data set is classed as functional.
Data set [4] relates to Staphylococcus aureus. Nature of the data set: Growth inhibition of vancomycin-intermediate Staphylococcus aureus Mu50 at 0.2 mM incubated overnight measured at 30 mins interval. The data set is classed as organism-based. The following applies: 0.5 h, 200 µM.
A short description of data set [5]: Solubility of the compound in water at 10 mg measured after 24 hrs by HPLC method. The data set is classed as physicochemical.
The test system of data set [6] is Staphylococcus aureus. Description: Antibacterial activity against vancomycin-intermediate Staphylococcus aureus Mu50 infected in BALB/c mouse assessed as reduction of bacterial burden in heart at 0.1 mg, ip bid for 3.5 days administered 6 hrs post bacterial infection measured 84 hrs post infection relative to control. Set-up: scale not given: the % may be the effect or the level left. The data set is classed as functional.

The subject of data set [7] is Staphylococcus aureus. Description: Antibacterial activity against linezolid-resistant Staphylococcus aureus NRS271 infected in BALB/c mouse assessed as log reduction of colony forming units in liver at 0.1 mg, ip bid for 3.5 days administered 6 hrs post bacterial infection measured 84 hrs post infection. The data set is classed as functional.
Data set [8] deals with Voltage-gated inwardly rectifying potassium channel KCNH2 (Homo sapiens, UniProt Q12809). Description: Inhibition of recombinant human ERG expressed in CHO cells at -80 mV holding potential measured after 3 minutes by automated whole cell patch clamp Qpatch method. The data set is classed as cell-based.
Sequence of Voltage-gated inwardly rectifying potassium channel KCNH2 (Q12809 whole entry): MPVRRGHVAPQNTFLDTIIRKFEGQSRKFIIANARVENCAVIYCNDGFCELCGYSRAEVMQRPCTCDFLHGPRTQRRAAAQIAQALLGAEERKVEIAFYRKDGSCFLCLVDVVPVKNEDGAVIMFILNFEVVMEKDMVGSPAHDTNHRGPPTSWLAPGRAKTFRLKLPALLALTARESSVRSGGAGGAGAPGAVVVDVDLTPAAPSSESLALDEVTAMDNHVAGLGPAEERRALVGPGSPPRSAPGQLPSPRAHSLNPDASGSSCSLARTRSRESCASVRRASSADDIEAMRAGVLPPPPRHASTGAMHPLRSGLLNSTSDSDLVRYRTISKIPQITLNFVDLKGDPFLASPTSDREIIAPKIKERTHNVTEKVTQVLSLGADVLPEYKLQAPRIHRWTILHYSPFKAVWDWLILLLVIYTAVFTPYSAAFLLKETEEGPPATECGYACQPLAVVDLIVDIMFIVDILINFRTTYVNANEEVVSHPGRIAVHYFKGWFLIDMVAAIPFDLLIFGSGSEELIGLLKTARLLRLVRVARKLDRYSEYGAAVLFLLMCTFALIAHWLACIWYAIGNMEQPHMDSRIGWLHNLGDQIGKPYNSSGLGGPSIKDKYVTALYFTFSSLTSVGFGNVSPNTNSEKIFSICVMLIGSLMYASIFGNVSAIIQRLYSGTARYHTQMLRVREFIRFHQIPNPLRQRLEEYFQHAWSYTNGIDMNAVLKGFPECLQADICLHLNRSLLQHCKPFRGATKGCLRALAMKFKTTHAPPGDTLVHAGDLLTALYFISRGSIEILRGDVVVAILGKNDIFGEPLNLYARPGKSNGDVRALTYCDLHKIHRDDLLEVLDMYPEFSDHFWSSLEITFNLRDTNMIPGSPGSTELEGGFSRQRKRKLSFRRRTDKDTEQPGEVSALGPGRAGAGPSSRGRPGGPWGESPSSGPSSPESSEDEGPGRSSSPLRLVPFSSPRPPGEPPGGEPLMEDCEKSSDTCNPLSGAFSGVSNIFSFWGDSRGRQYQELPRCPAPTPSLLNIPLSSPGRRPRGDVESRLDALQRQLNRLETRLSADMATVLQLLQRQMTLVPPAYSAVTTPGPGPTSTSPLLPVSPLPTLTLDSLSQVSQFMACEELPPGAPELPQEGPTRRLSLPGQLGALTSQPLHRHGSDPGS
The target in data set [9] is T1, 4,4'-diapophytoene desaturase (4,4'-diaponeurosporene-forming) (Staphylococcus aureus (strain MW2), UniProt Q8NUQ6).
T1 sequence (Q8NUQ6 whole entry): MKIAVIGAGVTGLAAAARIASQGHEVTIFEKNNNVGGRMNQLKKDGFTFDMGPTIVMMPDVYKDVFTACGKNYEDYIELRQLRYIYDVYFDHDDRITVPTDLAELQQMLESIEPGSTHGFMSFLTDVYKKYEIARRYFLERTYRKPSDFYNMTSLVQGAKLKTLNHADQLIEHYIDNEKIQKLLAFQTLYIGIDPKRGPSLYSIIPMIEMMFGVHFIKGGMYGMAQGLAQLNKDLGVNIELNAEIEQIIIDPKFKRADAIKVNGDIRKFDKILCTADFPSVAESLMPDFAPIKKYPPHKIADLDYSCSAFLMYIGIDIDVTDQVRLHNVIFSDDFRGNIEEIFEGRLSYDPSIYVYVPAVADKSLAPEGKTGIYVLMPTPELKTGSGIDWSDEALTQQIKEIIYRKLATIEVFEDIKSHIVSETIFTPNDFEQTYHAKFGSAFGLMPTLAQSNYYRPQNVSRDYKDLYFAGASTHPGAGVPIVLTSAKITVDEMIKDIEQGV
Nature of the data set: Inhibition of CrtN in methicillin-resistant Staphylococcus aureus USA400 MW2 assessed as reduction in staphyloxanthin levels after 48 hrs by spectrophotometric method-based pigment inhibition assay. The arrangement: species or system Staphylococcus aureus subsp. aureus MW2.

Data set [10] relates to Staphylococcus aureus. Nature of the data set: Antibacterial activity against linezolid-resistant Staphylococcus aureus NRS271 infected in BALB/c mouse assessed as reduction of bacterial burden in heart at 0.4 mg, ip bid for 3.5 days administered 6 hrs post bacterial infection measured 84 hrs post infection. The data set is classed as functional. Set-up: scale not given: the % may be the effect or the level left.

Data set [11] deals with Staphylococcus aureus. Nature of the data set: Induction of sensitization to immune clearance towards Staphylococcus aureus USA300 LAC infected in human whole blood assessed as bacterial killing by measuring bacterial survival after 6 hrs by serial dilution method relative to control. The data set is classed as functional.
Data set [12] relates to Staphylococcus aureus. Description: Antibacterial activity against linezolid-resistant Staphylococcus aureus NRS271 infected in BALB/c mouse assessed as reduction of bacterial burden in heart at 0.1 mg, ip bid for 3.5 days administered 6 hrs post bacterial infection measured 84 hrs post infection. The data set is classed as functional. The arrangement: scale not given: the % may be the effect or the level left.

The target of data set [13] is T2, 4,4'-diapophytoene desaturase (4,4'-diaponeurosporene-forming) (Staphylococcus aureus (strain MW2)) (UniProt Q8NUQ6).
T2 sequence (whole entry): T1 sequence (Q8NUQ6 whole entry)
Nature of the data set: Inhibition of CrtN in Staphylococcus aureus USA400 MW2 assessed as H2O2-induced bacterial death by measuring reduction in bacterial survival at 1 uM preincubated for 24 hrs followed by H2O2 addition measured after 30 mins by serial dilution method. The following applies: Staphylococcus aureus subsp. aureus MW2.

Data set [14] has as its system Staphylococcus aureus. Description: Antibacterial activity against linezolid-resistant Staphylococcus aureus NRS271 infected in BALB/c mouse assessed as reduction of bacterial burden in liver at 0.4 mg, ip bid administered at 12 hrs prior to bacterial infection dosed at 12 intervals for 4.5 days. The data set is classed as functional, organism-based.
The target of data set [15] is T1, 4,4'-diapophytoene desaturase (4,4'-diaponeurosporene-forming). Nature of the data set: Inhibition of CrtN in methicillin-resistant Staphylococcus aureus LAC USA300 assessed as reduction in staphyloxanthin levels after 48 hrs by spectrophotometric method-based pigment inhibition assay. Set-up: species or system Staphylococcus aureus subsp. aureus USA300.
The test system of data set [16] is Staphylococcus aureus. Nature of the data set: Antibacterial activity against Staphylococcus aureus Newman infected in BALB/c mouse assessed as reduction of bacterial burden in heart at 0.4 mg, ip bid administered at 12 hrs prior to bacterial infection dosed at 12 intervals for 4.5 days relative to control. The arrangement: scale not given: the % may be the effect or the level left. The data set is classed as functional.

The target in data set [17] is T3, 4,4'-diapophytoene desaturase (4,4'-diaponeurosporene-forming) (Staphylococcus aureus (strain Newman)) (UniProt O07855).
T3 sequence (whole entry): T1 sequence (Q8NUQ6 whole entry) with Q500R
Description: Inhibition of CrtN in Staphylococcus aureus Newman assessed as H2O2-induced bacterial death by measuring reduction in bacterial survival at 1 uM pretreated for 24 hrs followed by H2O2 addition measured after 30 mins by serial dilution method. The following applies: Staphylococcus aureus subsp. aureus str. Newman.

For data set [18], the system named is Staphylococcus aureus. Nature of the data set: Antibacterial activity against linezolid-resistant Staphylococcus aureus NRS271 infected in BALB/c mouse assessed as reduction of bacterial burden in liver at 0.1 mg, ip bid administered at 12 hrs prior to bacterial infection dosed at 12 intervals for 4.5 days. The data set is classed as functional, organism-based.

The subject of data set [19] is Trichophyton mentagrophytes. Description: Antifungal activity against Trichophyton mentagrophytes after 7 days. The data set is classed as functional, organism-based.
For data set [20], the system named is Staphylococcus aureus. Nature of the data set: Antibacterial activity against vancomycin-intermediate Staphylococcus aureus Mu50 infected in BALB/c mouse assessed as reduction of bacterial burden in liver at 0.1 mg, ip bid for 3.5 days administered 6 hrs post bacterial infection measured 84 hrs post infection. The data set is classed as functional, organism-based.

The test system of data set [21] is Staphylococcus aureus. Description: Growth inhibition of Staphylococcus aureus Newman at 0.2 mM incubated overnight measured at 30 mins interval. The following applies: 0.5 h, 200 µM. The data set is classed as organism-based.
Data set [22] in a line: Cytotoxicity against HEK293T cells after 72 hrs by CCK8 assay. The data set is classed as cell-based, HEK-293T. The following applies: human.

Residue numbers refer to the chain shown, from its start. Activity calls are given as the source filed them. The calls are words filed in the database; no cut-off is given here.

For the molecule `CN(C/C=C/C=C/c1ccc(C(F)(F)F)cc1)Cc1ccc2c(c1)OCCO2.Cl`, the Survival with Staphylococcus aureus [1], with Staphylococcus aureus [3] and in the data set with Staphylococcus aureus [11] was below 0.5% in each case. In addition, the half-maximal cytotoxic concentration (CC50) at 72 h in data set [2] came to 67.8 µM; in [22], 50.3 µM. The “growth inhibition (GI)” value in the data set with Staphylococcus aureus [4] and with Staphylococcus aureus [21] was “Non-Toxic” throughout. The molecule further registered a solubility at 24 h in data set [5] of 7.9 mg/mL. Also, the Activity with Staphylococcus aureus [6] is given as 99%; in the data set with Staphylococcus aureus [7], “<=0.75 log10CFU”; in the data set on Staphylococcus aureus [10] it was above 90%; with Staphylococcus aureus [12], above 90%; in the data set with Staphylococcus aureus [16], 89.01%. Besides, the results for the IC50 in data set [8], in data set [9] and in [15] were 12.1 µM, 0.0065 µM and 0.0055 µM, respectively. In addition, the inhibition result in data set [13] and in data set [17] was “Active” each time. Besides, the result in the data set on Staphylococcus aureus [14], in the data set with Staphylococcus aureus [18] and with Staphylococcus aureus [20] was Active. The outcome in [19] was inactive.

The values are drawn from ChEMBL document CHEMBL4251700, “Novel Staphyloxanthin Inhibitors with Improved Potency against Multidrug Resistant Staphylococcus aureus” (ACS Med Chem Lett, 2018).
